Experimental data reported in patent US20050222054A1, “Combination comprising a CDK inhibitor and doxorubicin” (Cyclacel Limited, priority 2002, published 2005).
“Also recorded” adds a separate entry of the source.

Columns and labels:
[1] = tested on: POMC (Rb deficient) tumours in POMC-Cre/POMC-Luc;Rb-flox/flox compound mutant mice; details: doxorubicin 5 mg/kg intravenously once a week for four weeks; in the combination, roscovitine 500 mg/kg orally twice daily for two days before each doxorubicin
Description: A conditional mouse model for retinoblastoma-dependent sporadic cancer was generated (Vooijs et al; Cancer Res 2002 Mar 15; 62(6): 1862-7; 2002) which permits non-invasive monitoring of pituitary tumour development in live animals via in vivo bioluminescence imaging of luciferase expression. This mouse model permits the longitudinal monitoring of tumour onset, progression and response to therapeutic agents that specifically target the retinoblastoma pathway. By way of summary, a retinoblastoma conditional KO line was crossed with a POMC-Cre/POMC-Luciferase transgenic line to generate POMC-Cre/POMC-Luc;Rb-flox/flox compound mutant mice. These mice develop POMC (Rb deficient) tumours (Vooijs et al, ibid) and as illustrated in FIG. 3.
In this study, doxorubicin was administered once a week for four weeks (5 mg/kg; intravenously).

SK-UT-1 cells = assay: Flow cytometry DNA cell cycle analysis; format: cell-based, human; details: 48 h treatment
[2] = tested on: osteosarcoma line SaOS-2 (pRb-deficient); details: pRb-deficient SaOS-2, in combination with doxorubicin; not seen in SaOS-2 transfected with Rb; cited from earlier work

Structure (SMILES)	tumour response (bioluminescence) [1]	% of total, G1 (SK-UT-1 cells)	% of total, G2M (SK-UT-1 cells)	% of total, Go (SK-UT-1 cells)	% of total, S (SK-UT-1 cells)	sensitisation to the cytotoxic effects of doxorubicin [2]
COc1cccc2c1C(=O)c1c(O)c3c(c(O)c1C2=O)C[C@@](O)(C(=O)CO)C[C@@H]3O[C@H]1C[C@H](N)[C@H](O)[C@H](C)O1 [Doxo]	delay tumorigenesis; also recorded: temporarily halts tumour progression	9%	43%	22%	18%	
CC[C@H](CO)Nc1nc(NCc2ccccc2)c2ncn(C(C)C)c2n1 [Roscovitine, 6-benzylamino-2-[(R)-1-ethyl-2-hydroxyethylamino]-9-isopropylpurine]		36%	19%	23%	16%	
CN1CC[C@H](c2c(O)cc(O)c3c(=O)cc(-c4ccccc4Cl)oc23)[C@H](O)C1 [flavopiridol]						significantly sensitised
